Data taken from the NIST ThermoML archive (doi:10.1021/je030163d).
± gives the expanded uncertainty stated by the source.

Assay: xn = mol fraction of the nth substance listed
Conditions: 101.3 kPa, Liquid; for viscosity: Capillary tube (Ostwald / Ubbelohde) method; for mass density: Pycnometric method

CC(=O)c1ccccc1 [acetophenone] + CN(C)C=O
Conditions	mass density, 298.15 K [kg/m3]	mass density, 303.15 K [kg/m3]	mass density, 308.15 K [kg/m3]	mass density, 313.15 K [kg/m3]	viscosity, 298.15 K [mPa·s]	viscosity, 303.15 K [mPa·s]	viscosity, 308.15 K [mPa·s]	viscosity, 313.15 K [mPa·s]
x2 = 0	1024.1 ± 0.6	1019.9 ± 0.6	1015.7 ± 0.6	1011.2 ± 0.6	1.68 ± 0.013	1.54 ± 0.012	1.41 ± 0.011	1.31 ± 0.01
x2 = 0.1123	1018 ± 0.5	1013.9 ± 0.6	1009.7 ± 0.6	1005.2 ± 0.6	1.584 ± 0.012	1.453 ± 0.011	1.33 ± 0.01	1.238 ± 0.009
x2 = 0.1641	1015.6 ± 0.5	1011.4 ± 0.5	1007.2 ± 0.5	1002.7 ± 0.5	1.544 ± 0.012	1.418 ± 0.011	1.299 ± 0.01	1.206 ± 0.009
x2 = 0.308	1008.8 ± 0.5	1004.6 ± 0.5	1000.4 ± 0.5	995.9 ± 0.5	1.43 ± 0.01	1.314 ± 0.01	1.205 ± 0.009	1.123 ± 0.008
x2 = 0.4328	1001 ± 0.5	996.8 ± 0.5	992.5 ± 0.5	988 ± 0.5	1.328 ± 0.009	1.221 ± 0.009	1.122 ± 0.008	1.047 ± 0.008
x2 = 0.5286	994.2 ± 0.4	989.9 ± 0.4	985.6 ± 0.5	981.1 ± 0.5	1.246 ± 0.009	1.148 ± 0.008	1.056 ± 0.008	0.987 ± 0.007
x2 = 0.6256	985.8 ± 0.4	981.4 ± 0.4	977.1 ± 0.4	972.5 ± 0.4	1.156 ± 0.008	1.069 ± 0.008	0.984 ± 0.007	0.922 ± 0.007
x2 = 0.7165	977.2 ± 0.4	972.8 ± 0.4	968.4 ± 0.4	963.8 ± 0.4	1.072 ± 0.008	0.995 ± 0.007	0.918 ± 0.007	0.862 ± 0.006
x2 = 0.7943	969 ± 0.4	964.5 ± 0.4	960 ± 0.4	955.3 ± 0.4	0.999 ± 0.007	0.93 ± 0.007	0.861 ± 0.006	0.81 ± 0.006
x2 = 0.9378	952.5 ± 0.3	947.9 ± 0.4	943.3 ± 0.4	938.5 ± 0.4	0.863 ± 0.006	0.809 ± 0.006	0.755 ± 0.006	0.714 ± 0.006

OCc1ccccc1 [benzenemethanol] + CN(C)C=O
Conditions	mass density, 298.15 K [kg/m3]	mass density, 303.15 K [kg/m3]	mass density, 308.15 K [kg/m3]	mass density, 313.15 K [kg/m3]	viscosity, 298.15 K [mPa·s]	viscosity, 303.15 K [mPa·s]	viscosity, 308.15 K [mPa·s]	viscosity, 313.15 K [mPa·s]
x2 = 0	1041.3 ± 0.4	1037.5 ± 0.4	1033.7 ± 0.4	1029.4 ± 0.4	5.16 ± 0.031	4.67 ± 0.028	4.004 ± 0.024	3.52 ± 0.021
x2 = 0.1088	1036.1 ± 0.4	1032.3 ± 0.4	1028.5 ± 0.4	1024.3 ± 0.4	4.473 ± 0.027	4.06 ± 0.025	3.51 ± 0.021	3.106 ± 0.019
x2 = 0.1712	1032.5 ± 0.4	1028.7 ± 0.4	1024.9 ± 0.4	1020.6 ± 0.4	4.011 ± 0.024	3.648 ± 0.022	3.17 ± 0.019	2.817 ± 0.017
x2 = 0.3055	1022.7 ± 0.4	1018.8 ± 0.4	1014.9 ± 0.4	1010.6 ± 0.4	3.14 ± 0.019	2.87 ± 0.018	2.517 ± 0.016	2.26 ± 0.014
x2 = 0.4003	1014.8 ± 0.4	1010.8 ± 0.4	1006.8 ± 0.4	1002.4 ± 0.4	2.59 ± 0.016	2.378 ± 0.015	2.1 ± 0.013	1.9 ± 0.012
x2 = 0.5393	1001.3 ± 0.4	997.2 ± 0.4	993.1 ± 0.4	988.7 ± 0.4	2.02 ± 0.013	1.86 ± 0.012	1.67 ± 0.011	1.52 ± 0.01
x2 = 0.5865	996.1 ± 0.4	992 ± 0.4	987.9 ± 0.4	983.4 ± 0.4	1.85 ± 0.012	1.71 ± 0.011	1.541 ± 0.01	1.411 ± 0.009
x2 = 0.717	980.7 ± 0.3	976.4 ± 0.4	972.1 ± 0.4	967.6 ± 0.4	1.44 ± 0.009	1.335 ± 0.009	1.218 ± 0.008	1.127 ± 0.008
x2 = 0.7962	970.3 ± 0.3	965.9 ± 0.3	961.5 ± 0.4	956.9 ± 0.4	1.23 ± 0.008	1.146 ± 0.008	1.054 ± 0.007	0.982 ± 0.007
x2 = 0.8972	957.6 ± 0.3	953.1 ± 0.3	948.7 ± 0.4	944 ± 0.4	1.001 ± 0.007	0.938 ± 0.007	0.872 ± 0.006	0.819 ± 0.006
